Experimental data: patent publication US12162890B2 (Novartis AG, priority 2015, dated 2024)

Molecular target: HEK293 cells with stable expression of the GRIN1 gene and tetracycline-inducible expression of the GRIN2B gene (NMDA receptor, NR2B) (Homo sapiens, UniProt Q13224)
Assay: Fluo-8 Ca2+ flux assay: reversal of Ro 25-6981-mediated suppression of the Ca2+ response to co-agonist (glutamate/glycine); also: test concentration or dose not given here
Type: cell-based
Settings: reversal of the Ro 25-6981 suppression of the Ca2+ response to co-agonist (glutamate/glycine)

HEK293 cells with stable expression of the GRIN1 gene and tetracycline-inducible expression of the GRIN2B gene (NMDA receptor, NR2B), sequence (Q13224 27-1484, other chains not shown): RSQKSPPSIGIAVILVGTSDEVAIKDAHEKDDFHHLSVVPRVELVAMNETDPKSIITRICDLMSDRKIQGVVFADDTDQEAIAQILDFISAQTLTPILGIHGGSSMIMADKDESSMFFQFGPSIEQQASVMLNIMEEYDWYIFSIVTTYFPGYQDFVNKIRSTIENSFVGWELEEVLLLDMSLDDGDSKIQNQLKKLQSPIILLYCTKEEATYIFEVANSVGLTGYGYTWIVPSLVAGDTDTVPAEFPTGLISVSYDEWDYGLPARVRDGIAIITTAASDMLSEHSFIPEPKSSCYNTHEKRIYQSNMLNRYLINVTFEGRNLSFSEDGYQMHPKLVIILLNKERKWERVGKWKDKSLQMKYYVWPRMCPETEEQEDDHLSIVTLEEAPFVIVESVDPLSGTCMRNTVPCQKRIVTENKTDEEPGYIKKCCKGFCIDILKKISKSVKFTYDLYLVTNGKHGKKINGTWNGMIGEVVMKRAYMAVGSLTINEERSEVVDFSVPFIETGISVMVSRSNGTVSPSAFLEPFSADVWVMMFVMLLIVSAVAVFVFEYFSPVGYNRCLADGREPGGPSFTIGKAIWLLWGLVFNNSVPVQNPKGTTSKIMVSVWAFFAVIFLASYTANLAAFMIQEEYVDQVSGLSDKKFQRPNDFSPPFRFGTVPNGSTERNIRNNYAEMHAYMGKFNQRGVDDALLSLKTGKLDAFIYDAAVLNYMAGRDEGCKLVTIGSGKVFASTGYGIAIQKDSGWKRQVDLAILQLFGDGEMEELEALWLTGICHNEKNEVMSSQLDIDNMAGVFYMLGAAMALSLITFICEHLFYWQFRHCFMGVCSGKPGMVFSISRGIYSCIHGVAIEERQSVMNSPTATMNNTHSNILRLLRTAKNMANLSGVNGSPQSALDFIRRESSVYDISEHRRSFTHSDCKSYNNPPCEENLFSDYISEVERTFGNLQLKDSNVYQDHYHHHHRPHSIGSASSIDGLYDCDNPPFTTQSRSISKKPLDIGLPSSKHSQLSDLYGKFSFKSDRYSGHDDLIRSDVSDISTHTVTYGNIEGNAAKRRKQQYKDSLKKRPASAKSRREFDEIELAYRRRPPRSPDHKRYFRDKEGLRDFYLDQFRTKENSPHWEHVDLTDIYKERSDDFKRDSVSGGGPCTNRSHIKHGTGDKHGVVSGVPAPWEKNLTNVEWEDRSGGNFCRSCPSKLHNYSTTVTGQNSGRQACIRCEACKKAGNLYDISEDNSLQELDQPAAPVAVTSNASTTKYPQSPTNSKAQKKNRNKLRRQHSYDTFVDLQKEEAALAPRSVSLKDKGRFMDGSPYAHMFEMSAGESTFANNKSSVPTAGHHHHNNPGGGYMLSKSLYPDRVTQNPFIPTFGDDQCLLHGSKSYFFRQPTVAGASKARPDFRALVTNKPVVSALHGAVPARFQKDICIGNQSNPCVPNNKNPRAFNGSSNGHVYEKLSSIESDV

| Structure (SMILES) | Response Recovered (%) |
| --- | --- |
| COCCn1cc(-c2ccc(F)c(C(F)(F)F)c2)c2c(=O)n(CC(=O)N3CCC(F)C3)cnc21 (stereo not drawn) [Example 188, 5-(4-fluoro-3-(trifluoromethyl)phenyl)-3-(2-(3-fluoropyrrolidin-1-yl)-2-oxoethyl)-7-(2-methoxyethyl)-3H-pyrrolor[2,3-d]pyrimidin-4(7H)-one] | 53 |
| Cc1cc(-c2cn(C3CC3)c3ccn(CC(=O)N4CC(C)(F)C4)c(=O)c23)ccc1F [Example 290, 1-cyclopropyl-5-(2-(3-fluoro-3-methylazetidin-1-yl)-2-oxoethyl)-3-(4-fluoro-3-methylphenyl)-1H-pyrrolo[3,2-c]pyridin-4(5H)-one] | 120 |
| CCC1(F)CN(C(=O)Cn2ccc3scc(-c4cnc(Cl)nc4)c3c2=O)C1 [Example 141, 3-(2-chloropyrimidin-5-yl)-5-(2-(3-ethyl-3-fluoroazetidin-1-yl)-2-oxoethyl)thieno[3,2-c]pyridin-4(5H)-one] | −4.1 |
| O=C(Cn1ccn2ccc(-c3ccc(Cl)c(Cl)c3)c2c1=O)N1CCC(F)C1 (stereo not drawn) [Example 395, 8-(3,4-dichlorophenyl)-2-(2-(3-fluoropyrrolidin-1-yl)-2-oxoethyl)pyrrolo[1,2-a]pyrazin-1(2H)-one] | 58 |
| O=C(Cn1ccc2scc(-c3ccc(Cl)c(C(F)(F)F)c3)c2c1=O)N1CCC(F)C1 (stereo not drawn) [Example 4, 3-(4-chloro-3-(trifluoromethyl)phenyl)-5-(2-(3-fluoropyrrolidin-1-yl)-2-oxoethyl)thieno[3,2-c]pyridin-4(5H)-one] | 107 |
| O=C(Cn1ccc2[nH]cc(-c3ccc(F)c(C(F)(F)F)c3)c2c1=O)N1CCCC1 [Example 219, 3-(4-fluoro-3-(trifluoromethyl)phenyl)-5-(2-oxo-2-(pyrrolidin-1-yl)ethyl)-1H-pyrrolo[3,2-c]pyridin-4(5H)-one] | 91 |
| O=C(Cn1ccc2scc(-c3cnc(Cl)c(C(F)(F)F)c3)c2c1=O)N1CCC(F)C1 (stereo not drawn) [Example 25, 3-(6-chloro-5-(trifluoromethyl)pyri-din-3-yl)-5-(2-(3-fluoropyrrolidin-1-yl)-2-oxoethyl)thieno[3,2-c]pyridin-4(5H)-one] | 28 |
| CC1(F)CN(C(=O)Cn2cnn3cnc(-c4ccc(F)c(Cl)c4)c3c2=O)C1 [Example 424, 5-(3-chloro-4-fluorophenyl)-3-(2-(3-fluoro-3-methylazetidin-1-yl)-2-oxoethyl)imidazo[5,1-f][1,2,4]triazin-4(3H)-one] | 0.55 |
| N=C(N)c1cn(CC(=O)N2CCCC2)c(=O)c2c(-c3ccc(F)c(C(F)(F)F)c3)csc12 [Example 113, 3-(4-fluoro-3-(trifluoromethyl)phenyl)-4-oxo-5-(2-oxo-2-(pyrrolidin-1-yl)ethyl)-4,5-dihydrothieno[3,2-c]pyridine-7-carboximidamide] | 47 |
| CC1(F)CN(C(=O)Cn2ccc3c(c(-c4ccc(F)c(Cl)c4)cn3C3CC3)c2=O)C1 [Example 285, 3-(3-chloro-4-fluorophenyl)-1-cyclopropyl-5-(2-(3-fluoro-3-methylazetidin-1-yl)-2-oxoethyl)-1H-pyrrolo[3,2-c]pyridin-4(5H)-one] | 140 |
| O=C(Cn1ccn2ncc(-c3ccc(Cl)c(Cl)c3)c2c1=O)N1CCC(F)C1 (stereo not drawn) [Example 327, 3-(3,4-dichlorophenyl)-5-(2-(3-fluoropyrrolidin-1-yl)-2-oxoethyl)pyrazolo[1,5-a]pyrazin-4(5H)-one] | 54 |
| O=C(Cn1ccc2[nH]cc(-c3ccc(Cl)c(Cl)c3)c2c1=O)N1CCC(F)C1 (stereo not drawn) [Example 214, 3-(3,4-dichlorophenyl)-5-(2-(3-fluoropyrrolidin-1-yl)-2-oxoethyl)-1H-pyrrolo[3,2-c]pyridin-4(5H)-one] | 84 |
| O=C(Cn1ccc2scc(-c3ccc(Cl)c(Cl)c3)c2c1=O)N1CC2(COC2)C1 [Example 68, 3-(3,4-dichlorophenyl)-5-(2-oxo-2-(2-oxa-6-azaspiro[3.3]heptan-6-yl)ethyl)thieno[3,2-c]pyridin-4(5H)-one] | 13 |
| O=C(Cn1ccc2cccc(-c3ccc(Cl)c(F)c3)c2c1=O)N1CC(F)(F)C1 [Example 305, 8-(4-chloro-3-fluorophenyl)-2-(2-(3,3-difluoroazetidin-1-yl)-2-oxoethyl)isoquinolin-1(2H)-one] | 23 |
| CN(C)Cc1cn(CC(=O)N2CCC(F)C2)c(=O)c2c(-c3ccc(F)c(Cl)c3)csc12 (stereo not drawn) [Example 120, 3-(3-chloro-4-fluorophenyl)-7-((dimelhylamino)methyl)-5-(2-(3-fluoropyrrolidin-1-yl)-2-oxoethyl)thieno[3,2-c]pyridin-4(5H)-one] | 61 |
| Cc1cn(CC(=O)N2CCCC2)c(=O)c2c(-c3ccc(F)c(C(F)(F)F)c3)csc12 [Example 107, 3-[4-fluoro-3-(trifluoromethyl)phenyl]-7-methyl-5-[2-oxo-2-(pyrrolidin-1-yl)ethyl]-4H,5H-thieno[3,2-c]pyridin-4-one] | 63 |
| O=C(Cn1ccc2scc(-c3ccc(Cl)c(F)c3)c2c1=O)N1CC(F)(F)C1 [Example 6, 3-(4-chloro-3-fluorophenyl)-5-(2-(3,3-difluoroazetidin-1-yl)-2-oxoethyl)thieno[3,2-c]pyridin-4(5H)-one] | 41 |

| Structure (SMILES) | Response Recovered (%) |
| --- | --- |
| O=C(Cn1ccc2scc(-c3cnc(F)c(Cl)c3)c2c1=O)N1CCC(F)C1 (stereo not drawn) [Example 37, 3-(5-chloro-6-fluoropyridin-3-yl)-5-(2-(3-fluoropyrrolidin-1-yl)-2-oxoethyl)thieno[3,2-c]pyridin-4(5H)-one] | 22 |
| O=C(Cn1ccc2scc(-c3ccc(Cl)c(Cl)c3)c2c1=O)N1CC[C@H](F)C1 [Example 30, (S)-3-(3,4-dichlorophenyl)-5-(2-(3-fluoropyrrolidin-1-yl)-2-oxoethyl)thieno[3,2-c]pyridin-4(5H)-one] | 96 |
| Cn1cc(-c2ccc(Cl)cc2)c2c(=O)n(CC(=O)N3CC(F)(F)C3)cnc21 [Example 155, 5-(4-chlorophenyl)-3-(2-(3,3-difluoroazetidin-1-yl)-2-oxoethyl)-7-methyl-3H-pyrrolo[2,3-d]pyrimidin-4(7H)-one] | 24 |
| O=C(Cn1ccc2scc(-c3ccc(F)c(C(F)(F)F)c3)c2c1=O)N1CC[C@H](F)C1 [Example 26, (S)-3-(4-fluoro-3-(trifluoromethyl)phen-yl)-5-(2-(3-fluoropyrrolidin-1-yl)-2-oxoethyl)thieno[3,2-c]pyridin-4(5H)-one] | 103 |
| O=C(Cn1cnc2[nH]cc(-c3cnc(Cl)c(C(F)(F)F)c3)c2c1=O)N1CC(F)(F)C1 [Example 182, 5-(6-chloro-5-(trifluoromethyl)pyridin-3-yl)-3-(2-(3,3-difluoroazetidin-1-yl)-2-oxoethyl)-3H-pyrrolo[2,3-d]pyrimidin-4(7H)-one] | 18 |
| Cc1cc(-c2cn(C3CC3)c3ccn(CC(=O)N4CC(C)(F)C4)c(=O)c23)ccc1Cl [Example 292, 3-(4-chloro-3-methylphenyl)-1-cyclopropyl-5-(2-(3-fluoro-3-methylazetidin-1-yl)-2-oxoethyl)-1,5-dihydro-4H-pyrrolo[3,2-c]pyridin-4-one] | 140 |
| O=C(Cn1cnc2[nH]nc(-c3ccc(Cl)c(C(F)(F)F)c3)c2c1=O)N1CCCC1 [Example 317, 3-(4-chloro-3-(trifluoromethyl)phenyl)-5-(2-oxo-2-(pyrrolidin-1-yl)ethyl)-1H-pyrazolo[3,4-d]pyrimidin-4(5H)-one] | 8 |
| O=C(Cn1cnc2c(c(-c3ccc(Cl)c(F)c3)cn2C2CC2)c1=O)N1CCCC1 [Example 191, 5-(4-chloro-3-fluorophenyl)-7-cyclopropyl-3-(2-oxo-2-(pyrrolidin-1-yl)ethyl)-3H-pyrrolo[2,3-d]pyrimidin-4(7H)-one] | 36 |
| O=C(Cn1cnc2[nH]cc(-c3ccc(Cl)c(C(F)(F)F)c3)c2c1=O)N1CCC(F)C1 (stereo not drawn) [Example 177, 5-(4-chloro-3-(trifluoromethyl)phenyl)-3-(2-(3-fluoropyrrolidin-1-yl)-2-oxoethyl)-3H-pyrrolo[2,3-d]pyrimidin-4(7H)-one] | 85 |
| CC1(N)CN(C(=O)Cn2ccc3scc(-c4ccc(F)c(Cl)c4)c3c2=O)C1 [Example 95] | 1 |
| CN(C)CCn1cc(-c2ccc(F)c(C(F)(F)F)c2)c2c(=O)n(CC(=O)N3CCC(F)C3)ccc21 (stereo not drawn) [Example 240] | 29 |
| O=C(Cn1ccc2scc(-c3ccc(F)c(Cl)c3)c2c1=O)N1CC2(CCN2)C1 [Example 97, 3-(3-chloro-4-fluorophenyl)-5-(2-oxo-2-(1,6-diazaspiro[3.3]heptan-6-yl)ethyl)thieno[3,2-c]pyridin-4(5H)-one 2,2,2-trifluoroacetate] | 2.8 |
| O=C(Cn1cnc2onc(-c3ccc(Cl)cc3)c2c1=O)N1CCCC1C(F)(F)F (stereo not drawn) [Example 384, 3-(4-chlorophenyl)-5-{2-oxo-2-[2-(trifluoromethyl)pyrrolidin-1-yl]ethyl}-4H,5H-[1,2]oxazolo[5,4-d]pyrimidin-4-one] | 2 |
| O=C(Cn1cnc2occ(-c3ccc(Cl)cc3)c2c1=O)N1CCC(C(F)(F)F)C1 (stereo not drawn) [Example 387, 5-(4-chlorophenyl)-3-(2-oxo-2-(3-(trifluoromethyl)pyrrolidin-1-yl)ethyl)furo[2,3-d]pyrimidin-4(3H)-one] | 7 |
| O=C(Cn1cnc2csc(-c3ccc(Cl)c(F)c3)c2c1=O)N1CCC(C(F)(F)F)C1 (stereo not drawn) [Example 365, 5-(4-chloro-3-fluorophenyl)-3-(2-oxo-2-(3-(trifluoromethyl)pyrrolidin-1-yl)ethyl)thieno[3,4-d]pyrimidin-4(3H)-one] | 4 |
| CC1(F)CN(C(=O)Cn2ccn3ccc(-c4ccc(F)c(Cl)c4)c3c2=O)C1 [Example 397, 8-(3-chloro-4-fluorophenyl)-2-(2-(3-fluoro-3-methylazetidin-1-yl)-2-oxoethyl)pyrrolo[1,2-a]pyrazin-1(2H)-one] | 140 |
